Assay results published in PubChem BioAssay AID1963441 (Molecular Pharmacology Branch, DTP, NCI, 2024).

Tested on: NCI-H1876 complex spheroid growth, % test/control
Experiment: Anticancer human tumor NCI-H1876 cell line growth inhibition [Asc];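 further: compound exposure lasted 7 days starting three days after seeding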;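 on viability, T/C: 100% = DMSO vehicle control wells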
Details: for IC50: curve of first compound; for viability, T/C: stronger effect = lower value; active means viability on the fitted dose curve at most 10% of control; inactive means the rest
How it was run: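 Stromal components (HUVEC and hMSC) are co-assembled with the cancer cells into multicellular spheroids. Drugs are then added singly or paired, at concentrations falling by half-log increments from a clinically achievable maximum, capped at 10 microM without known Cmax.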

CCN1CCN(Cc2ccc(Nc3ncc(F)c(-c4cc(F)c5nc(C)n(C(C)C)c5c4)n3)nc2)CC1 + Cc1c(S(C)(=O)=O)c(-c2cc(F)cc(N3CCN(c4ccc(NS(=O)(=O)c5ccc(NC(CCN6CCC(C(=O)OCCCP(=O)(O)O)CC6)CSc6ccccc6)c(S(=O)(=O)C(F)(F)F)c5)cc4)CC3)c2)c(-c2ccc(Cl)cc2)n1C(C)C
> 1000 nM: IC50 (second compound 0.0316 µM) | IC50 (second compound 0.1 µM) | IC50 (second compound 0.316 µM) | IC50 (second compound 1 µM) | IC50 (second compound 3.16 µM) | IC50 (second compound 10 µM)
inactive: viability, T/C (second compound 0.0316 µM, first compound 0.00316 µM) 97.1% | viability, T/C (second compound 0.0316 µM, first compound 0.01 µM) 94% | viability, T/C (second compound 0.0316 µM, first compound 0.0316 µM) 97.9% | viability, T/C (second compound 0.0316 µM, first compound 0.1 µM) 98.7% | viability, T/C (second compound 0.0316 µM, first compound 0.316 µM) 117% | viability, T/C (second compound 0.0316 µM, first compound 1 µM) 130% | viability, T/C (second compound 0.1 µM, first compound 0.00316 µM) 98.7% | viability, T/C (second compound 0.1 µM, first compound 0.01 µM) 101% | viability, T/C (second compound 0.1 µM, first compound 0.0316 µM) 100% | viability, T/C (second compound 0.1 µM, first compound 0.1 µM) 112% | viability, T/C (second compound 0.1 µM, first compound 0.316 µM) 121% | viability, T/C (second compound 0.1 µM, first compound 1 µM) 127% | viability, T/C (second compound 0.316 µM, first compound 0.00316 µM) 106% | viability, T/C (second compound 0.316 µM, first compound 0.01 µM) 96.2% | viability, T/C (second compound 0.316 µM, first compound 0.0316 µM) 120% | viability, T/C (second compound 0.316 µM, first compound 0.1 µM) 106% | viability, T/C (second compound 0.316 µM, first compound 0.316 µM) 115% | viability, T/C (second compound 0.316 µM, first compound 1 µM) 125% | viability, T/C (second compound 1 µM, first compound 0.00316 µM) 101% | viability, T/C (second compound 1 µM, first compound 0.01 µM) 100% | viability, T/C (second compound 1 µM, first compound 0.0316 µM) 98.1% | viability, T/C (second compound 1 µM, first compound 0.1 µM) 109% | viability, T/C (second compound 1 µM, first compound 0.316 µM) 121% | viability, T/C (second compound 1 µM, first compound 1 µM) 116% | viability, T/C (second compound 3.16 µM, first compound 0.00316 µM) 111% | viability, T/C (second compound 3.16 µM, first compound 0.01 µM) 104% | viability, T/C (second compound 3.16 µM, first compound 0.0316 µM) 91.8% | viability, T/C (second compound 3.16 µM, first compound 0.1 µM) 103% | viability, T/C (second compound 3.16 µM, first compound 0.316 µM) 114% | viability, T/C (second compound 3.16 µM, first compound 1 µM) 110% | viability, T/C (second compound 10 µM, first compound 0.00316 µM) 105% | viability, T/C (second compound 10 µM, first compound 0.01 µM) 104% | viability, T/C (second compound 10 µM, first compound 0.0316 µM) 94.7% | viability, T/C (second compound 10 µM, first compound 0.1 µM) 111% | viability, T/C (second compound 10 µM, first compound 0.316 µM) 122% | viability, T/C (second compound 10 µM, first compound 1 µM) 102%

NC(=O)C(=Cn1cnc(-c2cc(C(F)(F)F)cc(C(F)(F)F)c2)n1)c1cncnc1 + Cc1c(S(C)(=O)=O)c(-c2cc(F)cc(N3CCN(c4ccc(NS(=O)(=O)c5ccc(NC(CCN6CCC(C(=O)OCCCP(=O)(O)O)CC6)CSc6ccccc6)c(S(=O)(=O)C(F)(F)F)c5)cc4)CC3)c2)c(-c2ccc(Cl)cc2)n1C(C)C
inactive: viability, T/C (second compound 0.0316 µM, first compound 0.000949 µM) 105% | viability, T/C (second compound 0.0316 µM, first compound 0.003 µM) 102% | viability, T/C (second compound 0.0316 µM, first compound 0.00949 µM) 94.4% | viability, T/C (second compound 0.0316 µM, first compound 0.03 µM) 97.8% | viability, T/C (second compound 0.0316 µM, first compound 0.0949 µM) 105% | viability, T/C (second compound 0.0316 µM, first compound 0.3 µM) 55.1% | viability, T/C (second compound 0.1 µM, first compound 0.000949 µM) 99.3% | viability, T/C (second compound 0.1 µM, first compound 0.003 µM) 112% | viability, T/C (second compound 0.1 µM, first compound 0.00949 µM) 113% | viability, T/C (second compound 0.1 µM, first compound 0.03 µM) 106% | viability, T/C (second compound 0.1 µM, first compound 0.0949 µM) 101% | viability, T/C (second compound 0.1 µM, first compound 0.3 µM) 52.5% | viability, T/C (second compound 0.316 µM, first compound 0.000949 µM) 102% | viability, T/C (second compound 0.316 µM, first compound 0.003 µM) 107% | viability, T/C (second compound 0.316 µM, first compound 0.00949 µM) 91.3% | viability, T/C (second compound 0.316 µM, first compound 0.03 µM) 97.1% | viability, T/C (second compound 0.316 µM, first compound 0.0949 µM) 96.3% | viability, T/C (second compound 0.316 µM, first compound 0.3 µM) 45.8% | viability, T/C (second compound 1 µM, first compound 0.000949 µM) 99.6% | viability, T/C (second compound 1 µM, first compound 0.003 µM) 96.9% | viability, T/C (second compound 1 µM, first compound 0.00949 µM) 89.7% | viability, T/C (second compound 1 µM, first compound 0.03 µM) 96% | viability, T/C (second compound 1 µM, first compound 0.0949 µM) 88.7% | viability, T/C (second compound 1 µM, first compound 0.3 µM) 36.6% | viability, T/C (second compound 3.16 µM, first compound 0.000949 µM) 101% | viability, T/C (second compound 3.16 µM, first compound 0.003 µM) 92.5% | viability, T/C (second compound 3.16 µM, first compound 0.00949 µM) 95.5% | viability, T/C (second compound 3.16 µM, first compound 0.03 µM) 92.9% | viability, T/C (second compound 3.16 µM, first compound 0.0949 µM) 69.4% | viability, T/C (second compound 3.16 µM, first compound 0.3 µM) 27.9% | viability, T/C (second compound 10 µM, first compound 0.000949 µM) 109% | viability, T/C (second compound 10 µM, first compound 0.003 µM) 99.9% | viability, T/C (second compound 10 µM, first compound 0.00949 µM) 90% | viability, T/C (second compound 10 µM, first compound 0.03 µM) 92.5% | viability, T/C (second compound 10 µM, first compound 0.0949 µM) 66.9% | viability, T/C (second compound 10 µM, first compound 0.3 µM) 23.1%
163 nM: IC50 (second compound 3.16 µM)
273 nM: IC50 (second compound 0.316 µM)
149 nM: IC50 (second compound 10 µM)
223 nM: IC50 (second compound 1 µM)
> 300 nM: IC50 (second compound 0.0316 µM) | IC50 (second compound 0.1 µM)
